Data from publication PMC12152147, “DDB1 engagement defines the selectivity of S656 analogs for cyclin K degradation over CDK inhibition” (EMBO Reports, 2025).
“And” between values parts separate entries of the source, which are not always exact repeats. Equal entries are not always repeated. Where two headings read alike, the source gives them in different places.

Experiments:
[1] = biological target: T1, CDK1 (Homo sapiens, UniProt P06493); experiment: CDK1 in vitro kinase activity, single concentration 1 μM; type: biochemical; details: single concentration 1 μM
T1 construct: purchased BPS Bioscience 79597
T1 sequence (P06493 whole entry): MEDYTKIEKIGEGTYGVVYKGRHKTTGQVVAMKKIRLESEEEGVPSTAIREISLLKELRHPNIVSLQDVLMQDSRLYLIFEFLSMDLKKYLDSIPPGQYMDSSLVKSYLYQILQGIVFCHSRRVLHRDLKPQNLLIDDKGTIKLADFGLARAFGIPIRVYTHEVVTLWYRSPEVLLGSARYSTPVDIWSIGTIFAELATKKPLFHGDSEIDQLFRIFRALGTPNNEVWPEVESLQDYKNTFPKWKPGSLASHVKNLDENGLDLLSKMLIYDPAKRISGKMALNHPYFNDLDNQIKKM
T1 sequence (P14635 whole entry partner): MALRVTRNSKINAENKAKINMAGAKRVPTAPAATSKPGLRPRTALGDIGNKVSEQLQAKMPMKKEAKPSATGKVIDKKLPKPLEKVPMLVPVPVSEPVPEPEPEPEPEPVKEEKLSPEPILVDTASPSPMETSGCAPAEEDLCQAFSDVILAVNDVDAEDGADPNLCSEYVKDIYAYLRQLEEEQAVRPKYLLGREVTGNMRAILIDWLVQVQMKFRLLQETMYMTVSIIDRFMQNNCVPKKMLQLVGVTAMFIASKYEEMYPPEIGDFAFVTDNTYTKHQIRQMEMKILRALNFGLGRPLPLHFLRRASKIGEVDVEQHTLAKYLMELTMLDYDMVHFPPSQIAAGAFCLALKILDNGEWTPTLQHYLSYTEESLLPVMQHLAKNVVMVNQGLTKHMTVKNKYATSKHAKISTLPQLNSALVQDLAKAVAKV
Procedure: (§1) Kinase activity was assessed using the kinase assay kits from BPS Bioscience for CDK1, CDK9 and CDK12 with Kinase Glo MAX in duplicates. Compounds were tested at a single concentration of 1 μM for CDK1 and CDK9 activity, and in a dilution ranging from 0.64 nM to 50 μM for CDK12 activity. Chemiluminescence was read using the Neo Synergy BioTek plate reader.

[2] = tested on: OCI-AML5 cells expressing shRNAs targeting CDK1, 2, 4, 7, 9, cyclin K; experiment: Dose response in OCI-AML5 expressing shRNAs targeting CDK1, 2, 4, 7, 9, cyclin K or control; type: cell-based, H. sapiens
[3] = tested on: cyclin KeGFP; experiment: Cyclin KeGFP reporter system (eGFP/mCherry MFI by flow cytometry);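 as to % degradation cyclin K-eGFP: 10 μM compound for 3 h relative to DMSO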; type: cell-based, H. sapiens
Outline: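 Degradation read as eGFP-to-mCherry MFI ratio relative to DMSO controls, from flow cytometry of the selected G7 clone of OCI-AML5 cells transduced with the cyclin KeGFP reporter.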

[4] = tested on: OCI-AML5 cells expressing shRNA targeting CUL4A or CUL4B; experiment: Dose response in OCI-AML5 expressing shRNAs targeting CUL4A, CUL4B or control; type: cell-based, H. sapiens; details: ratio of IC50 in shCUL4A vs shCTRL OCI-AML5 cells
[5] = biological target: T2, CDK9/CyclinT (Homo sapiens, UniProt P50750); experiment: CDK9/CyclinT in vitro kinase activity, single concentration 1 μM; type: biochemical; details: single concentration 1 μM
T2 construct: purchased BPS Bioscience 79628
T2 sequence (P50750 whole entry): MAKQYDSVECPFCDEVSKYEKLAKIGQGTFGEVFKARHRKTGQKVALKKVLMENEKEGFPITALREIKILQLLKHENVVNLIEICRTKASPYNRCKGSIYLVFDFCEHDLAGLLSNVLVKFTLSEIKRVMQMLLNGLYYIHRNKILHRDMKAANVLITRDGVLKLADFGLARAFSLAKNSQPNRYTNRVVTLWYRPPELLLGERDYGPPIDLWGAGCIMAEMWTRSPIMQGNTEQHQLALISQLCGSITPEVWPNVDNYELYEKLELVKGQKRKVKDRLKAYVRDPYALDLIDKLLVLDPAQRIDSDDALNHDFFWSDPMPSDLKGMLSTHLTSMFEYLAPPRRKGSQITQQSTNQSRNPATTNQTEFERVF
T2 sequence (O60563 whole entry partner): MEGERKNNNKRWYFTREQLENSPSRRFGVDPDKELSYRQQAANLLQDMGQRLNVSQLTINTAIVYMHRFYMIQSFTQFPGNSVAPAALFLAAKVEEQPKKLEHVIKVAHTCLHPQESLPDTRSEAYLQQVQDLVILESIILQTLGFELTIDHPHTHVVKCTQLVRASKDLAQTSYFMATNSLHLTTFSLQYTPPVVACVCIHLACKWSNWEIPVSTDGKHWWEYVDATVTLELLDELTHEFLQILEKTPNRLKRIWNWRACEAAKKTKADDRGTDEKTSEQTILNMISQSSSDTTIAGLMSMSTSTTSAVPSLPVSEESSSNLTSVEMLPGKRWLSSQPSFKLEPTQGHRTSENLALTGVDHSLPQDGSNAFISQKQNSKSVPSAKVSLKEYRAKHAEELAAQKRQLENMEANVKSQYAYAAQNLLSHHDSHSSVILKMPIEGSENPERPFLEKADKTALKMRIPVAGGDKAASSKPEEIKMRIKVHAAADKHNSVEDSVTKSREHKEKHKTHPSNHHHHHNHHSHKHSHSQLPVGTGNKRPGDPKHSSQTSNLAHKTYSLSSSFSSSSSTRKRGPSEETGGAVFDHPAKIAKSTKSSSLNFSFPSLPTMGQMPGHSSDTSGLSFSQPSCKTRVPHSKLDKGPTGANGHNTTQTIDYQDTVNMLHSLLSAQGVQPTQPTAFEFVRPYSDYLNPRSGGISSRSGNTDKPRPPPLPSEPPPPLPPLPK
Procedure: as §1

[6] = tested on: OCI-AML5 cells; experiment: Dose-response proliferative assay in OCI-AML5 (4 days, CellTiterGlo); type: cell-based, H. sapiens; details: Homo sapiens, OCI-AML-5, OCI-AML5 cells; read-out: IC50 in AML5
Outline: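 Viability assessed after 4 days of compound exposure at 37 °C, 5% CO2. Compounds tested as 8 dilutions (1:4, 10 μM to 0.5 nM) on 300 OCI-AML5 cells/well grown in αMEM with 10% heat-inactivated FBS and 10 ng/mL GM-CSF.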

[7] = tested on: primary AML specimens; experiment: Dose-response assays in primary AML specimens (6 days, CellTiterGlo); type: cell-based, human; details: Homo sapiens, 144 h, 6 days, read-out: IC50
Procedure: Freshly thawed primary AML specimens were used for chemical screens. Cryopreserved cells were thawed at 37 °C in IMDM containing 20% FBS and DNase I (100 μg/mL). Cells were resuspended in IMDM supplemented with 15% BIT (BSA, insulin, transferrin; StemCell Technologies), 100 ng/mL SCF, 50 ng/mL FLT3L, 20 ng/mL IL3, 20 ng/mL G-CSF, 10^−4 mol/L b-mercaptoethanol, gentamicin (50 μg/mL), ciprofloxacin (10 μg/mL), SR1 (500 nmol/L) and UM729 (500 nmol/L). Cells were plated in 384-well white plates, 5000 cells per well in 50 μL. Compounds were dissolved in DMSO, diluted in media immediately before use and added to seeded cells at the unique concentration of 1 μM. Control wells received DMSO (0.1%) only. Cell viability was evaluated after 6 days in culture using the CellTiterGlo assay according to the manufacturer’s instruction. Percentage of inhibition for dose response curves was calculated as 100 – (100 × (mean luminescence [compound]/mean luminescence [DMSO])). Dose response curves were generated using nonlinear regression in GraphPad Prism version.
Dose-response assays in primary AML specimens were performed as in chemical screen (see above) with the exception that compounds were tested in serial dilution (8 dilutions, 1:4, 10 μM down to 0.5 nM). Dose-response assays in OCI-AML5 cell line were conducted similarly with the following modifications: 300 cells per well were seeded in 50 μL of cell line media and cell viability was evaluated after 4 days in culture.

Question: With `Cn1cc(-n2cnc3c(NCc4nc5cc(Cl)c(Cl)cc5[nH]4)nc(N4CCOCC4)nc32)cn1` [SR4835] as the molecule, how does the inhibition at 1 µM [1] read?
Answer: 0%

Question: And the IC50 ([2]; Homo sapiens, OCI-AML-5, 96 h, read-out: IC50, sh CDK1, OCI-AML5, 4 days)?
Answer: 25.2 nM

Question: What about the IC50 ([2]; Homo sapiens, OCI-AML-5, 96 h, read-out: IC50, sh CDK2, OCI-AML5, 4 days) of the same molecule?
Answer: 22.8 nM

Question: What about the IC50 ([2]; Homo sapiens, OCI-AML-5, 96 h, read-out: IC50, sh CDK4, OCI-AML5, 4 days) of the same molecule?
Answer: 17.4 nM

Question: And the IC50 ([2]; Homo sapiens, OCI-AML-5, 96 h, read-out: IC50, sh CDK7, OCI-AML5, 4 days)?
Answer: 20.2 nM

Question: And the IC50 ([2]; Homo sapiens, OCI-AML-5, 96 h, read-out: IC50, sh CDK9, OCI-AML5, 4 days)?
Answer: 21.4 nM

Question: And the IC50 ([2]; Homo sapiens, OCI-AML-5, 96 h, read-out: IC50, sh Cyclin K, OCI-AML5, 4 days)?
Answer: 5.7 nM

Question: And the IC50 ([2]; Homo sapiens, OCI-AML-5, 96 h, read-out: IC50, sh ctrl, OCI-AML5, 4 days)?
Answer: 21.2 nM

Question: What about the Class ([2]; class from shRNA IC50 profile and cyclin K-eGFP degradation) of the same molecule?
Answer: 1

Question: And the IC50 ([2]; read-out: IC50, sh CDK1, OCI-AML5, 4 days)?
Answer: 22.7 nM and 35.9 nM

Question: And the IC50 ([2]; read-out: IC50, sh CDK2, OCI-AML5, 4 days)?
Answer: 21.1 nM and 33.4 nM

Question: And the IC50 ([2]; read-out: IC50, sh CDK4, OCI-AML5, 4 days)?
Answer: 20.7 nM and 17.8 nM

Question: And the IC50 ([2]; read-out: IC50, sh CDK7, OCI-AML5, 4 days)?
Answer: 23.7 nM and 34.5 nM

Question: And the IC50 ([2]; read-out: IC50, sh CDK9, OCI-AML5, 4 days)?
Answer: 17.3 nM and 16.7 nM

Question: What about the IC50 ([2]; read-out: IC50, sh Cyclin K, OCI-AML5, 4 days) of the same molecule?
Answer: 8.31 nM and 5.07 nM

Question: And the IC50 ([2]; read-out: IC50, sh ctrl, OCI-AML5, 4 days)?
Answer: 17.9 nM and 15.9 nM

Question: And the “MFI of cyclin KeGFP over mCherry” value ([3]; OCI-AML5 G7 clone, 3 h, 10 μM, normalized to DMSO (=100))?
Answer: 16.0 and 15.3 and 15.4

Question: What about the “% degradation cyclin K-eGFP” value ([3]; cyclin K-eGFP reporter) of the same molecule?
Answer: 84%

Question: And the “Ratio shCUL4A/shCTRL” value [4]?
Answer: 4.77

Question: What about the inhibition at 1 µM [5] of the same molecule?
Answer: 0%

Question: And the IC50 [6]?
Answer: 18 nM

Question: What about the IC50 ([7]; primary AML specimen 03H109) of the same molecule?
Answer: 23.9 nM

Question: What about the IC50 ([7]; primary AML specimen 04H055) of the same molecule?
Answer: 37.9 nM

Question: What about the IC50 ([7]; primary AML specimen 04H096) of the same molecule?
Answer: 37.8 nM

Question: What about the IC50 ([7]; primary AML specimen 04H138) of the same molecule?
Answer: 46.2 nM

Question: What about the IC50 ([7]; primary AML specimen 05H113) of the same molecule?
Answer: 37.3 nM

Question: What about the IC50 ([7]; primary AML specimen 05H149) of the same molecule?
Answer: 45.5 nM

Question: What about the IC50 ([7]; primary AML specimen 05H193) of the same molecule?
Answer: 42.9 nM

Question: What about the IC50 ([7]; primary AML specimen 06H088) of the same molecule?
Answer: 40.2 nM

Question: And the IC50 ([7]; primary AML specimen 06H117)?
Answer: 34.3 nM

Question: And the IC50 ([7]; primary AML specimen 06H151)?
Answer: 28.5 nM

Question: And the IC50 ([7]; primary AML specimen 07H003)?
Answer: 44.1 nM

Question: And the IC50 ([7]; primary AML specimen 07H131)?
Answer: 99 nM

Question: And the IC50 ([7]; primary AML specimen 07H144)?
Answer: 31.9 nM

Question: What about the IC50 ([7]; primary AML specimen 07H155) of the same molecule?
Answer: 55.9 nM

Question: What about the IC50 ([7]; primary AML specimen 08H018) of the same molecule?
Answer: 41.3 nM

Question: What about the IC50 ([7]; primary AML specimen 08H021) of the same molecule?
Answer: 29.8 nM

Question: What about the IC50 ([7]; primary AML specimen 08H056) of the same molecule?
Answer: 70.5 nM

Question: And the IC50 ([7]; primary AML specimen 08H063)?
Answer: 125 nM

Question: What about the IC50 ([7]; primary AML specimen 08H085) of the same molecule?
Answer: 38.9 nM

Question: What about the IC50 ([7]; primary AML specimen 08H108) of the same molecule?
Answer: 41.7 nM

Question: And the IC50 ([7]; primary AML specimen 08H118)?
Answer: 33.5 nM

Question: And the IC50 ([7]; primary AML specimen 09H016)?
Answer: 35.3 nM

Question: What about the IC50 ([7]; primary AML specimen 09H070) of the same molecule?
Answer: 124 nM

Question: And the IC50 ([7]; primary AML specimen 10H014)?
Answer: 38 nM

Question: And the IC50 ([7]; primary AML specimen 10H046)?
Answer: 38.8 nM

Question: What about the IC50 ([7]; primary AML specimen 10H107) of the same molecule?
Answer: 37.1 nM

Question: And the IC50 ([7]; primary AML specimen 10H127)?
Answer: 48 nM

Question: What about the IC50 ([7]; primary AML specimen 10H161) of the same molecule?
Answer: 42.2 nM

Question: And the IC50 ([7]; primary AML specimen 10H174)?
Answer: 38.2 nM

Question: What about the IC50 ([7]; primary AML specimen 11H008) of the same molecule?
Answer: 45.7 nM

Question: And the IC50 ([7]; primary AML specimen 11H019)?
Answer: 41 nM

Question: And the IC50 ([7]; primary AML specimen 11H170)?
Answer: 141 nM

Question: What about the IC50 ([7]; primary AML specimen 11H217) of the same molecule?
Answer: 48.8 nM

Question: What about the IC50 ([7]; primary AML specimen 11H232) of the same molecule?
Answer: 39.8 nM

Question: What about the IC50 ([7]; primary AML specimen 12H033) of the same molecule?
Answer: 61.4 nM

Question: What about the IC50 ([7]; primary AML specimen 12H055) of the same molecule?
Answer: 44.7 nM

Question: What about the IC50 ([7]; primary AML specimen 12H148) of the same molecule?
Answer: 44.4 nM

Question: And the IC50 ([7]; primary AML specimen 13H053)?
Answer: 55.9 nM

Question: What about the IC50 ([7]; primary AML specimen 15H045) of the same molecule?
Answer: 28.4 nM

Question: And the IC50 ([7]; primary AML specimen 17H065)?
Answer: 59.1 nM
